Results from PubChem BioAssay AID2060613 (Molecular Pharmacology Branch, DTP, NCI, 2025).
Where “and” joins values, the source holds several entries; their conditions need not be identical. Equal values may be shown once.

Test system: 233499-124-R-J3-PDC complex spheroid viability
Assay: Anticancer human tumor 233499-124-R-J3-PDC patient-derived colon adenocarcinoma cell line growth inhibition [CLK]
Conditions: for viability, T/C: stronger effect = lower value; active = viability on the fitted dose curve at most 10% of control; inactive = the rest
In short: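 Multi-cell-type spheroids combined patient-derived tumor cells with HUVEC endothelial cells and human mesenchymal stem cells. Paired agents were dosed in half-log steps down from about clinical Cmax, or from 10 microM where Cmax was unknown.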

[1] = curve of first compound, second compound 0.0316 µM
[2] = curve of first compound, second compound 0.1 µM
[3] = curve of first compound, second compound 0.316 µM
[4] = curve of first compound, second compound 1 µM
[5] = curve of first compound, second compound 3.16 µM
[6] = curve of first compound, second compound 10 µM
[7] = second compound 0.0316 µM, first compound 0.0316 µM
[8] = second compound 0.0316 µM, first compound 0.1 µM
[9] = second compound 0.0316 µM, first compound 0.316 µM
[10] = second compound 0.0316 µM, first compound 1 µM
[11] = second compound 0.0316 µM, first compound 3.16 µM
[12] = second compound 0.0316 µM, first compound 10 µM
[13] = second compound 0.1 µM, first compound 0.0316 µM
[14] = second compound 0.1 µM, first compound 0.1 µM
[15] = second compound 0.1 µM, first compound 0.316 µM
[16] = second compound 0.1 µM, first compound 1 µM
[17] = second compound 0.1 µM, first compound 3.16 µM
[18] = second compound 0.1 µM, first compound 10 µM
[19] = second compound 0.316 µM, first compound 0.0316 µM
[20] = second compound 0.316 µM, first compound 0.1 µM
[21] = second compound 0.316 µM, first compound 0.316 µM
[22] = second compound 0.316 µM, first compound 1 µM
[23] = second compound 0.316 µM, first compound 3.16 µM
[24] = second compound 0.316 µM, first compound 10 µM
[25] = second compound 1 µM, first compound 0.0316 µM
[26] = second compound 1 µM, first compound 0.1 µM
[27] = second compound 1 µM, first compound 0.316 µM
[28] = second compound 1 µM, first compound 1 µM
[29] = second compound 1 µM, first compound 3.16 µM
[30] = second compound 1 µM, first compound 10 µM
[31] = second compound 3.16 µM, first compound 0.0316 µM
[32] = second compound 3.16 µM, first compound 0.1 µM
[33] = second compound 3.16 µM, first compound 0.316 µM
[34] = second compound 3.16 µM, first compound 1 µM
[35] = second compound 3.16 µM, first compound 3.16 µM
[36] = second compound 3.16 µM, first compound 10 µM
[37] = second compound 10 µM, first compound 0.0316 µM
[38] = second compound 10 µM, first compound 0.1 µM
[39] = second compound 10 µM, first compound 0.316 µM
[40] = second compound 10 µM, first compound 1 µM
[41] = second compound 10 µM, first compound 3.16 µM
[42] = second compound 10 µM, first compound 10 µM
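Also: spheroids exposed to the drug combinations for seven days.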
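For viability, T/C in this document: percent viability relative to DMSO vehicle control wells taken as 100%.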

COC1C=CCC(C)C(C)S(=O)(=O)NC(=O)c2ccc3c(c2)N(CC2CCC21)CC1(CCCc2cc(Cl)ccc21)CO3 (configuration not stated) + CN1CCN(c2cc(C(=O)Nc3cc4cc(-c5cnn(C)c5)ccc4cn3)ccn2)CC1
3650 nM: IC50 [2]
active: viability, T/C [12] 7.46% | viability, T/C [18] 7.28% | viability, T/C [25] 0.62% | viability, T/C [26] 1.27% | viability, T/C [27] 0.44% | viability, T/C [28] 0.32% | viability, T/C [29] 0.78% | viability, T/C [30] 0.58% | viability, T/C [31] 0.45% | viability, T/C [32] 0.45% | viability, T/C [33] 0.5% | viability, T/C [34] 0.44% | viability, T/C [35] 0.43% | viability, T/C [36] 0.31% | viability, T/C [37] 0.31% | viability, T/C [38] 0.28% | viability, T/C [39] 0.31% | viability, T/C [40] 0.3% | viability, T/C [41] 0.29% | viability, T/C [42] 0.22%
inactive: viability, T/C [7] 93.9% | viability, T/C [8] 98% | viability, T/C [9] 94.6% | viability, T/C [10] 80.2% | viability, T/C [11] 60.4% | viability, T/C [13] 98.8% | viability, T/C [14] 98.6% | viability, T/C [15] 90.5% | viability, T/C [16] 79.7% | viability, T/C [17] 57.3% | viability, T/C [19] 91.5% | viability, T/C [20] 80% | viability, T/C [21] 46.5% | viability, T/C [22] 13.9% | viability, T/C [23] 30.5% | viability, T/C [24] 3.11%
270 nM: IC50 [3]
< 31.6 nM: IC50 [4] | IC50 [5] | IC50 [6]
3890 nM: IC50 [1]

CC(CO)NC(=O)c1cc(-c2ccc(Cl)cc2)nn(-c2cnn(C)c2)c1=O (configuration not stated) + CNC(=O)c1ccc(Nc2nc(OC3CCCC3)c3c(-c4ccc5nc(C)oc5c4)c[nH]c3n2)c(OC)c1
inactive: viability, T/C [7] 94.6% | viability, T/C [8] 98.2% | viability, T/C [9] 90.1% | viability, T/C [10] 94.6% | viability, T/C [11] 94% | viability, T/C [12] 88.9% | viability, T/C [13] 83.5% | viability, T/C [14] 84.7% | viability, T/C [15] 71.9% | viability, T/C [16] 80.6% | viability, T/C [17] 87.8% | viability, T/C [18] 61.9% | viability, T/C [19] 91.4% | viability, T/C [20] 64.6% | viability, T/C [21] 88.5% | viability, T/C [22] 83.9% | viability, T/C [23] 83.5% | viability, T/C [24] 66.6% | viability, T/C [25] 84.3% | viability, T/C [26] 85% | viability, T/C [27] 86.5% | viability, T/C [28] 86.7% | viability, T/C [29] 81.9% | viability, T/C [30] 79.2% | viability, T/C [31] 84.6% | viability, T/C [32] 59.3% | viability, T/C [33] 62.4% | viability, T/C [34] 83.3% | viability, T/C [35] 83.7% | viability, T/C [36] 70.8% | viability, T/C [37] 68.6% | viability, T/C [38] 73.9% | viability, T/C [39] 69.8% | viability, T/C [40] 72.2% | viability, T/C [41] 69.7% | viability, T/C [42] 64.2%
> 10000 nM: IC50 [1] | IC50 [2] | IC50 [3] | IC50 [4] | IC50 [5] | IC50 [6]

CC(CO)NC(=O)c1cc(-c2ccc(Cl)cc2)nn(-c2cnn(C)c2)c1=O (configuration not stated) + CN1CCN(c2cc(C(=O)Nc3cc4cc(-c5cnn(C)c5)ccc4cn3)ccn2)CC1
active: viability, T/C [25] 1.24% | viability, T/C [26] 1.01% | viability, T/C [27] 6.77% | viability, T/C [28] 3.75% | viability, T/C [29] 6.32% | viability, T/C [30] 0.66% | viability, T/C [31] 0.63% | viability, T/C [32] 0.7% | viability, T/C [33] 0.8% | viability, T/C [34] 0.74% | viability, T/C [35] 0.73% | viability, T/C [36] 0.73% | viability, T/C [37] 0.53% | viability, T/C [38] 0.48% | viability, T/C [39] 1.5% | viability, T/C [40] 0.55% | viability, T/C [41] 0.5% | viability, T/C [42] 0.6%
> 10000 nM: IC50 [1] | IC50 [2] | IC50 [3]
< 31.6 nM: IC50 [4] | IC50 [5] | IC50 [6]
inactive: viability, T/C [7] 97.5% | viability, T/C [8] 100% | viability, T/C [9] 98.1% | viability, T/C [10] 92% | viability, T/C [11] 98.5% | viability, T/C [12] 66.4% | viability, T/C [13] 86.3% | viability, T/C [14] 112% | viability, T/C [15] 103% | viability, T/C [16] 94.2% | viability, T/C [17] 94.3% | viability, T/C [18] 80% | viability, T/C [19] 93.3% | viability, T/C [20] 94.4% | viability, T/C [21] 92.2% | viability, T/C [22] 94.8% | viability, T/C [23] 103% | viability, T/C [24] 68.9%

CC(=O)O[C@H]1C(=O)[C@@]2(C)[C@H]([C@H](OC(=O)c3ccccc3)[C@]3(O)C[C@H](OC(=O)[C@H](O)[C@@H](NC(=O)c4ccccc4)c4ccccc4)C(C)=C1C3(C)C)[C@]1(OC(C)=O)CO[C@@H]1C[C@@H]2O + CN1CCN(c2cc(C(=O)Nc3cc4cc(-c5cnn(C)c5)ccc4cn3)ccn2)CC1
69.9 nM: IC50 [1]
39.4 nM: IC50 [3]
< 31.6 nM: IC50 [4] | IC50 [5] | IC50 [6]
57.7 nM: IC50 [2]
inactive: viability, T/C [7] 79.9% | viability, T/C [8] 36.4% | viability, T/C [9] 15.7% | viability, T/C [10] 14.2% | viability, T/C [11] 14.4% | viability, T/C [12] 21.8% | viability, T/C [13] 77.1% | viability, T/C [14] 25.5% | viability, T/C [15] 11.9% | viability, T/C [16] 10.2% | viability, T/C [17] 12% | viability, T/C [18] 15.1% | viability, T/C [19] 57.5% | viability, T/C [20] 18.2% | viability, T/C [21] 15.6% | viability, T/C [22] 11.5% | viability, T/C [23] 13.8% | viability, T/C [24] 11.9%
active: viability, T/C [25] 0.76% | viability, T/C [26] 1.44% | viability, T/C [27] 1.17% | viability, T/C [28] 1.02% | viability, T/C [29] 0.56% | viability, T/C [30] 0.53% | viability, T/C [31] 0.61% | viability, T/C [32] 0.63% | viability, T/C [33] 0.56% | viability, T/C [34] 0.52% | viability, T/C [35] 0.59% | viability, T/C [36] 0.74% | viability, T/C [37] 0.46% | viability, T/C [38] 0.45% | viability, T/C [39] 0.39% | viability, T/C [40] 0.43% | viability, T/C [41] 0.43% | viability, T/C [42] 0.39%

CC(C)CC(NC(=O)C(Cc1ccccc1)NC(=O)c1cnccn1)B(O)O (configuration not stated)
4.97 nM and 4.96 nM: IC50 (curve of compound)
inactive: viability, T/C (compound 0.000949 µM) 101% and 106% | viability, T/C (compound 0.003 µM) 88.8% and 88.5%
active: viability, T/C (compound 0.00949 µM) 0.33% and 0.18% | viability, T/C (compound 0.03 µM) 0.31% and 0.22% | viability, T/C (compound 0.0949 µM) 0.13% and 0.2% | viability, T/C (compound 0.3 µM) 0.14% and 0.2%

CC1COCCN1c1cc(C2(S(C)(=N)=O)CC2)nc(-c2ccnc3[nH]ccc23)n1 (configuration not stated) + CN1CCN(c2cc(C(=O)Nc3cc4cc(-c5cnn(C)c5)ccc4cn3)ccn2)CC1
> 10000 nM: IC50 [1] | IC50 [2]
6970 nM: IC50 [3]
active: viability, T/C [25] 3.94% | viability, T/C [26] 1.1% | viability, T/C [27] 0.55% | viability, T/C [28] 1.34% | viability, T/C [29] 1.62% | viability, T/C [30] 0.81% | viability, T/C [31] 0.77% | viability, T/C [32] 0.89% | viability, T/C [33] 1.57% | viability, T/C [34] 0.66% | viability, T/C [35] 0.84% | viability, T/C [36] 0.92% | viability, T/C [37] 0.55% | viability, T/C [38] 0.49% | viability, T/C [39] 0.53% | viability, T/C [40] 0.5% | viability, T/C [41] 0.6% | viability, T/C [42] 0.44%
< 31.6 nM: IC50 [4] | IC50 [5] | IC50 [6]
inactive: viability, T/C [7] 99.9% | viability, T/C [8] 109% | viability, T/C [9] 98.3% | viability, T/C [10] 106% | viability, T/C [11] 90.3% | viability, T/C [12] 66.6% | viability, T/C [13] 96.6% | viability, T/C [14] 109% | viability, T/C [15] 103% | viability, T/C [16] 90.8% | viability, T/C [17] 75.7% | viability, T/C [18] 53.6% | viability, T/C [19] 94.2% | viability, T/C [20] 93.3% | viability, T/C [21] 98.9% | viability, T/C [22] 86.7% | viability, T/C [23] 71.2% | viability, T/C [24] 40.5%
